In paper PMC5559490, “Synthesis of Saccharumoside-B analogue with potential of antiproliferative and pro-apoptotic activities” (Scientific Reports, 2017):

Tests used:
HL-60 cancer cells = test: Quantification of apoptosis (Annexin V-PI), HL-60; assay type: cell-based, human; conditions: HL-60 cells
From the text: Apoptotic population of cancer cells was quantified by Annexin V-propidium iodide (PI) staining technique (Abcam, Cambridge, MA, USA) using a flow cytometer as per published technique.

Bax = test: Quantification of Bax (immunometric assay), HL-60; assay type: cell-based, human; conditions: HL-60 cells; compared to untreated cells
Procedure: Bax protein concentration determination was carried out using the Human Bax Enzyme Immunometric Assay kit (Assay Designs, Ann Arbor, MI, USA). The lysate (sample) preparation was carried out according to the manual. Following centrifugation (16,000 g for 15 min), the cells were resuspended in Modified Cell lysis buffer 4 [0.5 μL/mL of Sigma Protease Inhibitor Cocktail and 1 mM phenylmethylsulfonyl fluoride (PMSF)]. Cell lysate (100 μL) (sample) was added into the wells coated with monoclonal antibody to human Bax-α in triplicate. The plate was tapped gently to mix the contents. The sample was incubated at room temperature on a plate shaker for 1 h. The wells were emptied and washed with 5X wash buffer. After the final wash, the plate was tapped gently on a lint free paper towel to remove any remaining wash buffer. The sample was incubated again for 1 h at room temperature on a plate shaker after the addition of 100 μL of specific antibody (biotinylated monoclonal antibody to Bax-α) into each well. The wells were washed again with 5X wash buffer and emptied. Next, 100 μL of blue conjugate (streptavidin conjugated to horseradish peroxidase) was added into each well. […] The optical densities were read at 450 and 570 nm using an ELISA reader. Bax protein concentration was determined from the standard protein graphic using the optical densities of the samples[32].

[1] = test system: MCF-10A mammary epithelial cells; test: MTT assay on normal MCF-10A cells; assay type: cell-based; conditions: Homo sapiens, MTT assay, normal cells, 48 h, read-out: IC50 MCF-10A Breast (normal cell line)
[2] = test system: MCF-7 breast cancer cells; test: MTT antiproliferative assay, MCF-7; assay type: cell-based; conditions: Homo sapiens, MCF7; MTT assay; cancer cell line; mean of three independent experiments ± S.E.M.; read-out: IC50 MCF-7 Breast
caspase-3 = test: Caspase-3 colorimetric assay, MCF-7; assay type: cell-based, human; conditions: MCF-7 cells
Procedure: (§1) Caspases-3, -8 and -9 assays were measured according to manufacturer’s instructions using a caspase colorimetric protease kit (Abcam, Cambridge, MA, USA). Cells were treated with compounds for 48 h. The cells were lysed by the addition of 50 μL of chilled cell lysis buffer and incubated on ice for 10 min. The resulting cell lysate was centrifuged for 1 min at 10,000 g, and the supernatant was collected. The cell lysate containing […] of protein was incubated with […] of 4 mmol/L pNA-conjugated substrates (DEVD-pNA, IETD-pNA and LEHD-pNA; substrates for caspase-3, -8 and -9, respectively) at 37 °C for 3 h. The amount of pNA released was measured at 405 nm using an ELISA microplate reader (Bio rad). The caspases activity was expressed as fold difference, [33].

caspase-8 [3] = test: Caspase-8 colorimetric assay, HL-60; assay type: cell-based, human; conditions: HL-60 cells; data not showed
Procedure: as §1

[4] = test system: MIA PaCa-2 pancreatic cancer cells; test: MTT antiproliferative assay, MIA PaCa-2; assay type: cell-based; conditions: Homo sapiens, MIA PaCa-2; MTT assay; cancer cell line; mean of three independent experiments ± S.E.M.; read-out: IC50 MIA PaCa-2 Pancreatic
caspase-9 = test: Caspase-9 colorimetric assay, HL-60; assay type: cell-based, human; conditions: HL-60 cells
Procedure: as §1

caspase-8 [5] = test: Caspase-8 colorimetric assay, MCF-7; assay type: cell-based, human; conditions: MCF-7 cells; data not showed
Procedure: as §1

[6] = test system: human peripheral blood mononuclear cells (PBMC); test: MTT assay on normal PBMC; assay type: cell-based; conditions: MTT assay, normal cells, 48 h, read-out: IC50 PBMC (normal cells)
[7] = test system: HeLa cervical cancer cells; test: MTT antiproliferative assay, HeLa; assay type: cell-based; conditions: Homo sapiens, MTT assay, cancer cell line, mean of three independent experiments ± S.E.M., read-out: IC50 HeLa Cervical
HL-60 leukemia cells = test: MTT antiproliferative assay, HL-60; assay type: cell-based, human
MCF-7 cells = test: Rhodamine-123 mitochondrial membrane potential assay, MCF-7; assay type: cell-based, human; conditions: 24 h
Procedure: [Worded in the source for another cell line; this cell line is reported under the same test.] Mitochondrial membrane potential changes (ΔΨm) were determined by flow cytometry using rhodamine-123 (green-fluorescent dye)[32]. MIA PaCa-2 pancreatic cancer cells (1 × 10^6 cells/well) were exposed to the isolated compound (5 µM) for 24 h. Further, rhodamine-123 (200 nM) was added to the cells, which were kept in dark for 35 min. The cells were further centrifuged and the pellet was washed with phosphate buffered saline (1 ml). The intensity of fluorescence in the cells represented the mitochondrial membrane potential change (ΔΨm), which was measured using a flow cytometer.

HL-60 cells = test: Rhodamine-123 mitochondrial membrane potential assay, HL-60; assay type: cell-based, human; conditions: compared to untreated cells
Bcl-2 = test: Quantification of Bcl-2 (ELISA), MCF-7; assay type: cell-based, human; conditions: MCF-7 cells; compared to untreated cells
Procedure: The intracellular content of Bcl-2 was quantified using the human Bcl-2 ELISA kit (Abcam, Cambridge, MA, USA). For the sample preparation, the cells were lysed with 1X lysis buffer. After 1 h of incubation at room temperature, the sample was spun at 1,000 g for 15 min and the supernatant was used for Bcl-2 measurement. Briefly, 80 μL of sample diluent and 20 μL of sample were added into the wells coated with monoclonal antibody to human Bcl-2, and after that the wells were washed twice with the wash buffer. Next, 50 μL of biotin-conjugate were added into the wells. After 2 h of incubation at room temperature on a microplate shaker, 100 μL of streptavidin-horseradish peroxidase were added. The sample was incubated again for 1 h at room temperature on a microplate shaker. The solution was withdrawn and the wells were washed with 3X wash buffer. Immediately, 100 μL of TMB substrate solution were added. Finally, 100 μL of stop solution were added into each well to stop the enzyme reaction. The absorbance was read using an ELISA reader at 450 and 620 nm wavelengths. Bcl-2 protein concentration was determined from the standard protein graphic using the optical densities of the samples[32].

IC50 [2]: 6.13 ± 0.64 µM
effect on caspase-3 activity (caspase-3): enhanced caspase-3 and -9 activities
effect on caspase-8 activity (caspase-8 [3]): did not exhibit considerable effect
IC50 [4]: 12.9 ± 0.52 µM
effect on caspase-9 activity (caspase-9): enhanced caspase-3 and -9 activities
effect on caspase-8 activity (caspase-8 [5]): did not show considerable effect
IC50 [7]: 7.85 ± 0.57 µM
IC50 (HL-60 leukemia cells; Homo sapiens, HL-60, MTT assay, cancer cell line, mean of three independent experiments ± S.E.M., read-out: IC50 HL-60 Leukemia): 4.43 ± 0.35 µM
SMILES: COc1cc(CO)ccc1OC1OC(COC(=O)c2ccc(F)cc2)C(O)C(O)C1O (stereo not drawn) [Compound 9f, (6-(4-(hydroxymethyl)-2-methoxyphenoxy)-tetrahydro-3,4,5-trihydroxy-2H-pyran-2-yl)methyl 4-fluorobenzoate]
apoptotic cell population (HL-60 cancer cells): increase in the early apoptotic to late apoptotic cells in a dose-dependent fashion
effect on Bax protein levels (Bax): increase in Bax protein levels
IC50 [1]: > 100 µM
IC50 [6]: > 100 µM
anti-proliferative effect at 24 h (HL-60 leukemia cells; HL-60 cells, 24 h, versus camptothecin (positive control)): better antiproliferative effect than camptothecin
mitochondria membrane potential loss (MCF-7 cells; 5 µM): 41.33 ± 1.43%
mitochondria membrane potential loss (MCF-7 cells; 10 µM): 52.67 ± 2.33%
mitochondria membrane potential loss (HL-60 cells; 5 µM): 55.32 ± 2.14%
mitochondria membrane potential loss (HL-60 cells; 10 µM): 65.56 ± 2.56%
effect on Bcl-2 levels (Bcl-2): dose dependent inhibition of Bcl-2
